Residues, ends and D or L forms follow the SMILES beside them. No end group written: not given here.
Legend:
[1] = test system: human umbilical vein endothelial cells (HUVEC); experiment: Copper-induced IL-8 secretion from HUVEC (ELISA); type: cell-based; conditions: 25 μM CuCl2, 24 hours; P<0.007
Method: Human umbilical vein endothelial cells (HUVEC) (5.0×10^4 cells) were incubated in serum-free and ascorbate-free endothelial cell basal medium-2 (EGM2) medium (BioWhittaker) with ITS supplement with (i) copper, (ii) a tetrapeptide analogue of the high-affinity, N-terminal Cu(II) binding site of human albumin (D-Asp D-Ala D-His D-Lys or d-DAHK), or (iii) both of them (n=3, in duplicate). IL-8 was determined by ELISA (see Example 13). […] Upon visual examination, all cells appeared to be viable at 24 hours.

[2] = Cu(II)/H2O2 hydroxyl radical generation, 2-deoxy-D-ribose degradation (TBA, 532 nm), Example 7; type: biochemical; conditions: CuCl2 0.1 mM, H2O2 2.0 mM
Method: The ability of the L-tetrapeptide to inhibit the generation of ROS was tested as described in Gutteridge and Wilkins, Biochim. Biophys. Acta, 759, 38-41 (1983) and Cheeseman et al., Biochem. J., 252, 649-653 (1988). Briefly, Cu(II) and H2O2 were mixed causing the generation of hydroxyl radicals in a Fenton-type reaction. The hydroxyl radicals attack the sugar 2-deoxy-D-ribose (the sugar residue of DNA) to produce fragments. Heating the fragments at low pH produces malonaldehyde that, upon the addition of 2-thiobarbituric acid, yields a pink chromogen which can be measured spectrophotometrically at 532 nm. Thus, the absorbance at 532 nm is a measure of the damage to 2-deoxy-D-ribose.
The assay was performed with and without the L-tetrapeptide. […] Clearly, the L-tetrapeptide inhibited the degradation of 2-deoxy-D-ribose by hydroxyl radicals.

[3] = Passage through a model of the blood brain barrier; type: in vitro ADME
[4] = Inhibition of hydroxyl radical production, Cu(II)/ascorbic acid deoxyribose/TBA assay, Example 10; type: biochemical; conditions: for % Inhibition (decrease in absorbance compared to buffer alone): CuCl2 10 μM; for formation of the pink chromogen: data not shown
Method: The ability of the compounds listed above to inhibit the generation of hydroxyl radicals was tested as described in Gutteridge and Wilkins, Biochim. Biophys. Acta, 759:38-41 (1983). Briefly, Cu(II) and ascorbic acid were mixed causing the generation of hydroxyl radicals. Then, deoxyribose was added, and the hydroxyl radicals, if present, attacked the deoxyribose to produce fragments. […]. Thus, absorbance at 532 nm is a measure of the damage to deoxyribose and, therefore, of hydroxyl radical formation.
To perform the assay, CuCl2 in buffer (20 mM KH2PO4 buffer, pH 7.4) and either one of the test compounds in buffer or buffer alone were added to test tubes (final concentration of CuCl2 was 10 μM). The test tubes were incubated for 15 minutes at room temperature. Then, 0.5 mM ascorbic acid in buffer and 1.9 mM 2-deoxy-D-ribose in buffer were added to each test tube, and the test tubes were incubated for 1 hour at 37° C. Finally, 1 ml of 1% (w/v) TBA in 50 mM NaOH and 1 ml of concentrated acetic acid were added to each test tube, and the test tubes were incubated in boiling water for 15 minutes. After the test tubes had cooled for 15 minutes, the absorbance at 532 nm was read.
Histidine and several peptides with histidine in different positions were tested at 1:1 and 2:1 peptide:copper ratios for their ability to inhibit the production of hydroxyl radicals. Also, a peptide having an acetylated aspartic acid (Ac-Asp) as the N-terminal amino acid was also tested. In Table 11, the % inhibition is the percent decrease in absorbance compared to buffer alone divided by the absorbance of the buffer alone.

[5] = Inhibition of hydroxyl radical production by peptides, Cu(II)/ascorbic acid deoxyribose/TBA assay, Example 16; type: biochemical
Method: The ability of the peptides listed in Table 14 to inhibit the generation of hydroxyl radicals was tested. Hydroxyl radicals were generated by mixing Cu(II) and ascorbic acid. When deoxyribose was added, the hydroxyl radicals, if present, attacked the deoxyribose to produce fragments. Heating the fragments at low pH produced malonaldehyde that, upon the addition of 2-thiobarbituric acid (TBA), yielded a pink chromogen which was measured spectrophotometrically at 532 nm. Thus, absorbance at 532 nm is a measure of the damage to deoxyribose and, therefore, of hydroxyl radical formation.
To perform the assay, (a) 50 μl of 200 μM CuCl2 in water, (b) water or enough of one of the test peptides in water (total volume of 150 μl) to give peptide:copper ratios of 1:4, 1:2, 1:1, 2:1, 4:1, 6:1 and 8:1, and (c) 525 μl buffer (20 mM KH2PO4 buffer, pH 7.4) were added to test tubes. The test tubes were incubated for 15 minutes at room temperature. Then, 25 μl of 20 mM ascorbic acid in buffer and 250 μl of 7.5 mM 2-deoxy-D-ribose in water were added to each test tube, and the test tubes were incubated for 1 hour at 37° C. Finally, 1 ml of 1% (w/v) TBA in 50 mM NaOH and 1 ml of glacial acetic acid were added to each test tube, and the test tubes were incubated in boiling water for 15 minutes. After the test tubes had cooled for 15 minutes, the absorbance at 532 nm was read. The results are presented in attached FIGS. 26A-V.

[6] = compound:copper 1:1, copper only control 0.767
[7] = compound:copper 2:1, copper only control 0.767
[8] = peptide:copper ratios of 2:1 or less
[9] = compound:copper 1:1, copper only control 0.954
[10] = compound:copper 2:1, copper only control 0.954

Compound: [Cl][Cu][Cl] [CuCl2]
- IL-8 secretion as compared to controls incubated with water [1]: > 5.5 fold higher

Compound: C[C@H](NC(=O)[C@@H](N)CC(=O)O)C(=O)N[C@@H](Cc1c[nH]cn1)C(=O)N[C@@H](CCCCN)C(=O)O [L-Asp L-Ala L-His L-Lys] (H-DAHK-OH)
- Percent Inhibition (degradation of 2-deoxy-D-ribose) ([2]; tetrapeptide 0.12 mM (Cu(II):tetrapeptide 1:1.2)): 38%
- Percent Inhibition (degradation of 2-deoxy-D-ribose) ([2]; tetrapeptide 0.2 mM (Cu(II):tetrapeptide 1:2)): 73%
- passage through a model of the blood brain barrier [3]: pass through a model of the blood brain barrier

Compound: Acetylated-L-Asp L-Ala L-His L-Lys L-Ser L-Glu L-Val L-Ala L-His L-Arg L-Phe L-Lys (Ac-DAHKSEVAHRFK; listed as Homo sapiens)
- % Inhibition (decrease in absorbance compared to buffer alone) ([4]; compound:copper 1:1): 16.9%
- Absorbance at 532 nm [4, 6]: 0.633
- % Inhibition (decrease in absorbance compared to buffer alone) ([4]; compound:copper 2:1): 27.5%
- Absorbance at 532 nm [4, 7]: 0.692

Compound: Ala Ala His His (AAHH)
- inhibition of hydroxyl radical production ([5]; 1:4 peptide:copper ratio): complete inhibition
- inhibition of hydroxyl radical production [5, 8]: effectively inhibited hydroxyl radical production

Compound: Asp Ala His Lys-NH2 (DAHK-NH2)
- inhibition of hydroxyl radical production [5, 8]: effectively inhibited hydroxyl radical production

Compound: Catalase
- formation of the pink chromogen ([4]; catalase 0-80 nM): prevent the formation of the pink chromogen
- formation of the pink chromogen ([4]; catalase with L-Asp L-Ala L-His L-Lys present at tetrapeptide/copper 1:1): prevents the formation of the pink chromogen

Compound: DAHGMTCANC (cysteine pairing not given here)
- inhibition of hydroxyl radical production ([5]; 1:1 peptide:copper ratio): complete inhibition
- inhibition of hydroxyl radical production [5, 8]: effectively inhibited hydroxyl radical production

Compound: DAHGMTCARC (cysteine pairing not given here)
- inhibition of hydroxyl radical production [5, 8]: effectively inhibited hydroxyl radical production

Compound: L-Ala L-His L-Lys L-Ser L-Glu L-Val L-Ala L-His L-Arg L-Phe L-Lys (AHKSEVAHRFK; listed as Homo sapiens)
- % Inhibition (decrease in absorbance compared to buffer alone) ([4]; compound:copper 1:1): 11.6%
- Absorbance at 532 nm [4, 9]: 0.843
- % Inhibition (decrease in absorbance compared to buffer alone) ([4]; compound:copper 2:1): 95.1%
- Absorbance at 532 nm [4, 10]: 0.047

Compound: L-Asp L-Ala L-His L-Lys L-Ser L-Glu L-Val L-Ala L-His L-Arg L-Phe L-Lys (DAHKSEVAHRFK; listed as Homo sapiens)
- % Inhibition (decrease in absorbance compared to buffer alone) ([4]; compound:copper 1:1): 13.2%
- Absorbance at 532 nm [4, 6]: 0.645
- % Inhibition (decrease in absorbance compared to buffer alone) ([4]; compound:copper 2:1): 95.8%
- Absorbance at 532 nm [4, 7]: 0.040

Compound: L-His L-Lys L-Ser L-Glu L-Val L-Ala L-His L-Arg L-Phe L-Lys (HKSEVAHRFK; listed as Homo sapiens) [His Lys Ser Glu Val Ala His Arg Phe Lys]
- % Inhibition (decrease in absorbance compared to buffer alone) ([4]; compound:copper 1:1): 24.9%
- Absorbance at 532 nm [4, 9]: 0.716
- % Inhibition (decrease in absorbance compared to buffer alone) ([4]; compound:copper 2:1): 46.6%
- Absorbance at 532 nm [4, 10]: 0.509

Compound: Ser Gly His
- inhibition of hydroxyl radical production [5, 8]: effectively inhibited hydroxyl radical production

Compound: Thr Leu His
- inhibition of hydroxyl radical production [5, 8]: effectively inhibited hydroxyl radical production
